Values of other authors, collected in patent US20230175068A1, “PROGNOSIS METHOD OF ACUTE MYELOID LEUKAEMIA” (CENTRE NATIONAL DE LA RECHERCHE SCIENTIFIQUE, priority 2020, published 2023).
Where two headings read alike, the source gives them in different places.

Tested on: AML cell lines

SMILES	T-Statistic (Drug sensitivity AUC (Sanger GDSC1))	T-Statistic (Drug sensitivity AUC (Sanger GDSC2))
O=C(c1cc(Cc2n[nH]c(=O)c3ccccc23)ccc1F)N1CCN(C(=O)C2CC2)CC1 [Olaparib]	-3.795	
O=C1NC(=O)c2c1c(-c1ccccc1Cl)cc1[nH]c3ccc(O)cc3c21 [Wee1 Inhibitor]		-4.966
